Laboratory results from patent US20240269139A1, “COMPOUNDS FOR TARGETED PROTEIN DEGRADATION OF KINASES” (DANA-FARBER CANCER INSTITUTE, INC., priority 2020, published 2024).
Read-outs that look alike come from different tables or passages of the source.

Legend:
Type in all cases: cell-based
[1] = biological target: T1, protein kinases (human kinome) (Homo sapiens, UniProt P42680); settings: TEC (P42680)
T1 sequence (P42680 1-631): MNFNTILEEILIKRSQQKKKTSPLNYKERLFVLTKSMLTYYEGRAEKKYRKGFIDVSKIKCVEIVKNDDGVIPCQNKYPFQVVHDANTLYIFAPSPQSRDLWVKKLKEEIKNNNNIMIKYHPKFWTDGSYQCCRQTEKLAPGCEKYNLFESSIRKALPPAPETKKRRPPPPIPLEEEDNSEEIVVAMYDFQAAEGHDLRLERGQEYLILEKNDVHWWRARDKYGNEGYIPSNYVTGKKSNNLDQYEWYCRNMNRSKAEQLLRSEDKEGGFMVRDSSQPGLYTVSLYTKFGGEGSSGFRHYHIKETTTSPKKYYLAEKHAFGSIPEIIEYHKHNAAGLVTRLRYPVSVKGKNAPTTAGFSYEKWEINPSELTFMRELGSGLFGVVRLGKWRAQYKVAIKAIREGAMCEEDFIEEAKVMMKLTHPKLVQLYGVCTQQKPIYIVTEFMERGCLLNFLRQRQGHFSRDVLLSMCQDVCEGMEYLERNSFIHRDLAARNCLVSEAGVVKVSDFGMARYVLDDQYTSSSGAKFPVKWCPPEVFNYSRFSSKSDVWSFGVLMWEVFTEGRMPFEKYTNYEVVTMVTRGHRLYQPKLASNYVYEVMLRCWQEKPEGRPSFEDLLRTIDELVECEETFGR

[2] = biological target: protein kinases (human kinome) (Homo sapiens, UniProt Q9Y4K4); settings: MAP4K5 (Q9Y4K4)
Sequence of protein kinases (human kinome) (Homo sapiens, UniProt Q9Y4K4) (Q9Y4K4 whole entry): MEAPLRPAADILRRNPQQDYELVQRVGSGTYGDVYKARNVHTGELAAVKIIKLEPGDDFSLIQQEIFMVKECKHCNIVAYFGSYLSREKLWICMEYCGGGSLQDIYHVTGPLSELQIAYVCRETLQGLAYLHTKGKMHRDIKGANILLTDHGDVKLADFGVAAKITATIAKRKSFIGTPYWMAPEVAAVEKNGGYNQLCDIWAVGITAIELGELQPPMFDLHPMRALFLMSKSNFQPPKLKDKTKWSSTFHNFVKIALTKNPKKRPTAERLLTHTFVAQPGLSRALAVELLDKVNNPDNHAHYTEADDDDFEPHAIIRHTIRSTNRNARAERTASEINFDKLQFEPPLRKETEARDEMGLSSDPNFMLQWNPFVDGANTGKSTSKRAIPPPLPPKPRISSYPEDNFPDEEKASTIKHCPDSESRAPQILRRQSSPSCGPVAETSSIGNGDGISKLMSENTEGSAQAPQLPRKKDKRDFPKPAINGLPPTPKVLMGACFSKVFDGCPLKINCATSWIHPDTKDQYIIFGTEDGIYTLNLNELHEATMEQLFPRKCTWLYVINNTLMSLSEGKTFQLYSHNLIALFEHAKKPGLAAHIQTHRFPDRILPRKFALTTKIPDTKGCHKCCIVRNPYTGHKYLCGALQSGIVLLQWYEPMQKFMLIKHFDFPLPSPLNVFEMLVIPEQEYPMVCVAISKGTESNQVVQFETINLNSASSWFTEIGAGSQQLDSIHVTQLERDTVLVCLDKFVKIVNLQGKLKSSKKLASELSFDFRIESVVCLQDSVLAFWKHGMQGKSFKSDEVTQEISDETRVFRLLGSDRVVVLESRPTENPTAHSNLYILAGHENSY

[3] = biological target: protein kinases (human kinome) (Homo sapiens, UniProt P06239)
Sequence of protein kinases (human kinome) (Homo sapiens, UniProt P06239) (P06239 whole entry): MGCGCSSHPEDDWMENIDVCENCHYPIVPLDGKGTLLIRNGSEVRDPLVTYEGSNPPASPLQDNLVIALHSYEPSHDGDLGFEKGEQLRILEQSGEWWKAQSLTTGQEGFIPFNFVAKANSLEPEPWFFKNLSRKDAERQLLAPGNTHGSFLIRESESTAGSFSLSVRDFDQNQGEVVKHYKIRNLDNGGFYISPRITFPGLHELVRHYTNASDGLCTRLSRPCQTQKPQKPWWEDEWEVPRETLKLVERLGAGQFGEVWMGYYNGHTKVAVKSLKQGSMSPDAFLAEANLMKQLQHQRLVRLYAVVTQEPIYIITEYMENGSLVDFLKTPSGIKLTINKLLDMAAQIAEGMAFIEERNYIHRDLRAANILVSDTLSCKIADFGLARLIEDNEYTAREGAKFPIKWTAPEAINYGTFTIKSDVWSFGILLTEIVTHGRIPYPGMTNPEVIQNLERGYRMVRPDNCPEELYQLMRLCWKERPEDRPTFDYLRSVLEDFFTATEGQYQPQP

[4] = biological target: protein kinases (human kinome) (Homo sapiens, UniProt Q9NYL2)
Sequence of protein kinases (human kinome) (Homo sapiens, UniProt Q9NYL2) (Q9NYL2 whole entry): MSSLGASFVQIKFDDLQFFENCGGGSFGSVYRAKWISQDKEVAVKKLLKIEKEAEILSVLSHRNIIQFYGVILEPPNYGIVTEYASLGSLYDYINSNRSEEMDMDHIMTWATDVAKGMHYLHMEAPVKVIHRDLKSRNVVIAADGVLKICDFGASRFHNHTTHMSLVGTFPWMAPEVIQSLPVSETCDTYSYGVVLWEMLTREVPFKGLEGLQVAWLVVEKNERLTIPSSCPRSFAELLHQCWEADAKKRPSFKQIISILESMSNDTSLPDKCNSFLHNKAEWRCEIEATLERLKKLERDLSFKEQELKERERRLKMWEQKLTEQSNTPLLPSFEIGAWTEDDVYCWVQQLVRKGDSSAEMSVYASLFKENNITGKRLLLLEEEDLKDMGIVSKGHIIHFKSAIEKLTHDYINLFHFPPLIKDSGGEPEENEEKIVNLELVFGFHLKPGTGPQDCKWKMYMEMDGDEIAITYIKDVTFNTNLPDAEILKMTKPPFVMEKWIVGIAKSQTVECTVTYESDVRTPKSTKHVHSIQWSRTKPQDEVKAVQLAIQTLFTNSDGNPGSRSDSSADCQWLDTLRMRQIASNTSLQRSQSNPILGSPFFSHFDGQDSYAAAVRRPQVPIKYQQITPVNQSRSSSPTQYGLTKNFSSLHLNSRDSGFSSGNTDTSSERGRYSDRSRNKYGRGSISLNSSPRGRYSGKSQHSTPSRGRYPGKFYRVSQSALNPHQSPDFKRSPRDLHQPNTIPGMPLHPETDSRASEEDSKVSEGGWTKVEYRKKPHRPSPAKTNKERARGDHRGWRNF

[5] = biological target: protein kinases (human kinome) (Homo sapiens, UniProt O96013); settings: PAK4 O96013-1
Sequence of protein kinases (human kinome) (Homo sapiens, UniProt O96013) (O96013 whole entry): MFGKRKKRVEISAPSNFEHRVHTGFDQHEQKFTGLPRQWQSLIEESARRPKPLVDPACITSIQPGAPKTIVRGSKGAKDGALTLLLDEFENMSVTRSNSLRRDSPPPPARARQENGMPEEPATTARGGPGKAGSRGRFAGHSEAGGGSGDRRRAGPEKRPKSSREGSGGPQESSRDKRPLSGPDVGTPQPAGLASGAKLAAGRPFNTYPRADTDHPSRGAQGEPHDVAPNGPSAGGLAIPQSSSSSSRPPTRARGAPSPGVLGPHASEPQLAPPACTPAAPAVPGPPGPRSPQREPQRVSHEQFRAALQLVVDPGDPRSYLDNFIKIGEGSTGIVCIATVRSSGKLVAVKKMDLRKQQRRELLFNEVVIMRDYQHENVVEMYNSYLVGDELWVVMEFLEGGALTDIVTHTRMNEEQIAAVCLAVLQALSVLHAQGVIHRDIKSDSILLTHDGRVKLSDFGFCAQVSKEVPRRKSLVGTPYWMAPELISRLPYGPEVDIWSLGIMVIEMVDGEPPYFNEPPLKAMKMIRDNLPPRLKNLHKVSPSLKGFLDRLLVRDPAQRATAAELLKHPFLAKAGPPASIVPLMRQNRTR

[6] = biological target: protein kinases (human kinome) (Homo sapiens, UniProt Q16659)
Sequence of protein kinases (human kinome) (Homo sapiens, UniProt Q16659) (Q16659 whole entry): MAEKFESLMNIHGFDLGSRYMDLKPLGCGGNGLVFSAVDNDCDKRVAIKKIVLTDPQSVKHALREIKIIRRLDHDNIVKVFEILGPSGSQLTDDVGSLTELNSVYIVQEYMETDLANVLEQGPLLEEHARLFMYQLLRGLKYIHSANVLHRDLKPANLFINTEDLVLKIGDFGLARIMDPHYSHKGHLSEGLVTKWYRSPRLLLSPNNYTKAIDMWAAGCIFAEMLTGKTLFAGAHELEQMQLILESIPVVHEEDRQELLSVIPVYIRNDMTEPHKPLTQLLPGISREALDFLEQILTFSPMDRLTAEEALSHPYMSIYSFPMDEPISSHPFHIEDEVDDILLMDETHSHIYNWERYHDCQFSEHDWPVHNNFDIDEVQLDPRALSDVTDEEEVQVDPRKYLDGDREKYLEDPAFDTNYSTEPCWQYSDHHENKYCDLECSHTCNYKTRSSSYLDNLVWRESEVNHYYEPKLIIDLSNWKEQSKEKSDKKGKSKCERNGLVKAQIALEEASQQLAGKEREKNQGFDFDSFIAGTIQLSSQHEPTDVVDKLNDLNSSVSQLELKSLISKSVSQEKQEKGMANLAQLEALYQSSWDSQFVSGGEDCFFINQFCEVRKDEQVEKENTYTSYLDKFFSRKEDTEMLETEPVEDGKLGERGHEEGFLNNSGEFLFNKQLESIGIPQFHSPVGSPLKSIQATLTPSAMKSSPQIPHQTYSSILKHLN

[7] = biological target: protein kinases (human kinome) (Homo sapiens, UniProt O14874); settings: BCKDK (O14874), experiment wp160, 1 hr
[8] = experiment wp107, direction down
[9] = LCK P06239-1, experiment wp160, 4 hr
[10] = LCK, accession P06239-1, experiment wp160, 4 hr, direction of change down
[11] = MAP3K20 Q9NYL2; experiment wp168
[12] = MAPK6 (Q16659), experiment wp131
[13] = LCK, accession P06239-1, experiment wp081, direction of change down
[14] = experiment wp137, direction down

Cc1ccc(NC(=O)c2cccc(C(F)(F)F)c2)cc1N1Cc2cnc(Nc3ccc(N4CCN(Cc5cn(CCCCCOc6cccc7c6C(=O)N(C6CCC(=O)NC6=O)C7=O)nn5)CC4)nc3)nc2N(C)C1=O (stereo not drawn) [DB0646, N-(3-(7-((6-(4-((1-(5-((2-(2,6-Dioxopiperidin-3-yl)-1,3-dioxoisoindolin-4-yl)oxy)pentyl)-1H-1,2,3-triazol-4-yl)methyl)piperazin-1-v)pyridin-3-yl)amino)-1-methyl-2-oxo-1,4-dihydropyrimido[4,5-d]pyrimidin-3(2H)-yl)-4-methylphenyl)-3-(trifluoromethyl)benzamide]
logFC ([1]; experiment wp107): −0.8282
logFC [1, 8]: −0.8282
logFC ([2]; experiment wp045): −0.4109
logFC ([2]; experiment wp045, direction down): −0.4109
logFC ([2]; experiment wp107): −0.3345
logFC [2, 8]: −0.3345
logFC ([2]; experiment wp160, 8 hr): −0.5009
logFC ([2]; experiment wp160, 8 hr, direction down): −0.5009
logFC LCK [3, 9]: −0.4575
logFC LCK ([3]; LCK P06239-1, experiment wp160, 8 hr): −0.5386
logFC LCK [3, 10]: −0.4575
logFC LCK ([3]; LCK, accession P06239-1, experiment wp160, 8 hr, direction of change down): −0.5386
logFC LCK ([3]; LCK, accession P06239, experiment wp152, direction of change down): −0.4468
logFC of LCK (P06239) ([3]; experiment wp152): −0.4468
logFC MAP3K20 (Q9NYL2) ([4]; Experiment wp045): −0.4248
logFC MAP3K20 (Q9NYL2) ([4]; Experiment wp107): −0.53
logFC MAP3K20 (Q9NYL2) ([4]; Experiment wp160, 2 hr): −0.3293
logFC MAP3K20 ([4]; MAP3K20 Q9NYL2; experiment wp045): −0.4248
logFC MAP3K20 ([4]; MAP3K20 Q9NYL2; experiment wp107): −0.53
logFC MAP3K20 ([4]; MAP3K20 Q9NYL2; experiment wp152): −0.6556
logFC MAP3K20 ([4]; MAP3K20 Q9NYL2; experiment wp160, 2 hr): −0.3293
logFC MAP3K20 ([4]; MAP3K20 Q9NYL2; experiment wp160, 4 hr): −0.6192
logFC MAP3K20 ([4]; MAP3K20 Q9NYL2; experiment wp160, 8 hr): −0.9197
logFC MAP3K20 ([4]; MAP3K20 Q9NYL2; experiment wp160; 4 hr): −0.6192
logFC MAP3K20 ([4]; MAP3K20 Q9NYL2; experiment wp160; 8 hr): −0.9197
logFC MAP3K20 ([4]; MAP3K20 Q9NYL2; experiment wp172): −0.3864
logFC MAP3K20 (Q9NYL2) ([4]; experiment wp152): −0.6556

Cc1ccc(NC(=O)c2cccc(C(F)(F)F)c2)cc1N1Cc2cnc(Nc3ccc(N4CCN(CCCOc5cccc6c5C(=O)N(C5CCC(=O)NC5=O)C6=O)CC4)nc3)nc2N(C)C1=O (stereo not drawn) [DB0662]
logFC LCK ([3]; LCK P06239-1, experiment wp168): −0.9078
logFC LCK ([3]; LCK, accession P06239-1, experiment wp168, direction of change down): −0.9078
logFC MAP3K20 [4, 11]: −0.737
logFC ([5]; experiment wp168): −1.34
logFC PAK4 ([5]; experiment wp168): −1.34

Cc1ccc(NC(=O)c2cccc(C(F)(F)F)c2)cc1N1Cc2cnc(Nc3ccc(N4CCN(CCCCC(=O)N[C@H](C(=O)N5C[C@H](O)C[C@H]5C(=O)N[C@@H](C)c5ccc(-c6scnc6C)cc5)C(C)(C)C)CC4)nc3)nc2N(C)C1=O [DB1113]
logFC ([2]; experiment wp168): −1.754
logFC ([2]; experiment wp168, direction down): −1.754
logFC MAP3K20 [4, 11]: −1.38

Cc1ncsc1-c1ccc([C@H](C)NC(=O)[C@@H]2C[C@@H](O)CN2C(=O)[C@@H](NC(=O)CCOCCOCCN2CCN(c3ccc(Nc4ncc(Cl)c(Nc5ccccc5S(=O)(=O)C(C)C)n4)cc3)CC2)C(C)(C)C)cc1 [FMF.06.098.1]
logFC [6, 12]: −0.4123
logFC MAPK6 [6, 12]: −0.4123

C[C@@H]1C[C@@H](O)c2ncnc(N3CCN(C(=O)[C@H](CNCCCCCCCCCCc4cccc5c4C(=O)N(C4CCC(=O)NC4=O)C5=O)c4ccc(Cl)cc4)CC3)c21 (stereo partly drawn) [INY.03.041.01]
logFC ([6]; MAPK6 (Q16659), experiment wp118): −0.6183
logFC MAPKG ([6]; MAPKG Q16659, experiment wp118): −0.6183

Cc1ncsc1-c1ccc([C@H](C)NC(=O)[C@@H]2C[C@@H](O)CN2C(=O)[C@@H](NC(=O)CCCCCN2CCN(c3ccc(Nc4ncc5scc(-c6cccc(NS(C)(=O)=O)c6)c5n4)cc3)CC2)C(C)(C)C)cc1 [RSS0680, (2S,4R)-1-((S)-3,3-Dimethyl-2-(6-(4-(4-((7-(3-(methylsulfonamido)phenyl)thieno[3,2-d]pyrimidin-2-yl)amino)phenyl)piperazin-1-yl)hexanamido)butanoyl)-4-hydroxy-N—((S)-1-(4-(4-methylthiazol-5yl)phenyl)ethyl)pyrrolidine-2-carboxamide]
logFC ([6]; MAPK6 Q16659, experiment wp080): −0.5033
logFC MAPK6 ([6]; MAPK6 Q16659, experiment wp080): −0.5033

Cc1ccc(C(=O)Nc2ccc(CN3CCN(CCCOCCOCCOCCNC(=O)COc4cccc5c4C(=O)N(C4CCC(=O)NC4=O)C5=O)CC3)c(C(F)(F)F)c2)cc1C#Cc1cnc2cccnn12 (stereo not drawn) [SB1.G.187]
logFC ([2]; experiment wp105): −0.3488
logFC ([2]; experiment wp105, direction down): −0.3488
logFC ([2]; experiment wp107): −0.4411
logFC [2, 8]: −0.4411

Cn1c(=O)c(-c2c(Cl)cccc2Cl)cc2cnc(Nc3ccc(OCCNC(=O)CCCCCCNC(=O)COc4cccc5c4C(=O)N(C4CCC(=O)NC4=O)C5=O)cc3)nc21 (stereo not drawn) [SB1.G.192.1]
logFC LCK ([3]; LCK P06239-1, experiment wp081): −1.748
logFC LCK [3, 13]: −1.748

CC(C)S(=O)(=O)c1ccccc1Nc1nc(Nc2ccc(N3CCN(CCOCCNC(=O)CNc4cccc5c4C(=O)N(C4CCC(=O)NC4=O)C5=O)CC3)cc2)ncc1Cl (stereo not drawn) [SK.3.91]
logFC ([1]; experiment wp103): −0.6497
logFC ([1]; experiment wp103, direction down): −0.6497
logFC ([1]; experiment wp107): −1.146
logFC [1, 8]: −1.146
logFC ([6]; MAPK6 (Q16659), experiment wp133, 2 hr): −0.8253
logFC ([6]; MAPK6 (Q16659), experiment wp133, 2 hr, direction down): −0.8253
logFC ([6]; MAPK6 (Q16659), experiment wp133, 4 hr): −1.614
logFC ([6]; MAPK6 (Q16659), experiment wp133, 4 hr, direction down): −1.614
logFC ([6]; MAPK6 Q16659, experiment wp103): −1.525
logFC MAPK6 ([6]; MAPK6 Q16659, experiment wp103): −1.525
logFC ([6]; MAPK6 Q16659, experiment wp107): −1.345
logFC MAPK6 ([6]; MAPK6 Q16659, experiment wp107): −1.345
logFC LCK ([3]; LCK P06239-1, experiment wp160, 2 hr): −0.4627
logFC LCK [3, 9]: −1.173
logFC LCK ([3]; LCK, accession P06239-1, experiment wp160, 2 hr, direction of change down): −0.4627
logFC LCK [3, 10]: −1.173
logFC [7]: −0.8683
logFC ([7]; direction down): −0.8683

CC(C)S(=O)(=O)c1ccccc1Nc1nc(Nc2ccc(N3CCN(CCOCCOCCNC(=O)CNc4cccc5c4C(=O)N(C4CCC(=O)NC4=O)C5=O)CC3)cc2)ncc1Cl (stereo not drawn) [TL12.186]
logFC ([1]; experiment wp137): −2.11
logFC [1, 14]: −2.11
logFC [6, 12]: −1.488
logFC ([6]; MAPK6 (Q16659), experiment wp131, direction down): −1.488

CC(C)S(=O)(=O)c1ccccc1Nc1nc(Nc2ccc(N3CCN(CCOCCOCCC(=O)NCCNc4cccc5c4CN(C4CCC(=O)NC4=O)C5=O)CC3)cc2)ncc1Cl (stereo not drawn) [TL13.97]
logFC ([1]; experiment wp137): −1.712
logFC [1, 14]: −1.712

Cc1ccc(C(=O)Nc2ccc(CN3CCN(CCOCCOCCNC(=O)CNc4cccc5c4C(=O)N(C4CCC(=O)NC4=O)C5=O)CC3)c(C(F)(F)F)c2)cc1C#Cc1cnc2cccnn12 (stereo not drawn) [TL13.150]
logFC LCK ([3]; LCK P06239-1, experiment wp081): −0.7129
logFC LCK [3, 13]: −0.7129

Cc1cc(Nc2ncc(Br)c(Nc3cccc(F)c3C(N)=O)n2)ccc1S(=O)(=O)NCCOCCOCCOCCOCCNc1cccc2c1C(=O)N(C1CCC(=O)NC1=O)C2=O (stereo not drawn) [TMX.02.174]
logFC ([1]; experiment wp146): −0.9362
logFC ([1]; experiment wp146, direction down): −0.9362

Nc1ncc(-c2ccc(S(=O)(=O)N(CCCNC(=O)CCOCCOCCOCCOCCOCCNc3cccc4c3C(=O)N(C3CCC(=O)NC3=O)C4=O)C3CC3)cc2)cc1-c1ccc2c(c1)CCNC2=O (stereo not drawn) [WH.10417.099]
logFC ([5]; experiment wp103): −0.3705
logFC PAK4 ([5]; experiment wp103): −0.3705
logFC ([5]; experiment wp105): −0.3478
logFC PAK4 ([5]; experiment wp105): −0.3478
logFC ([5]; experiment wp107): −0.4797
logFC PAK4 ([5]; experiment wp107): −0.4797
